Consider 29 compounds from patent publication US9434711B2 (Janssen Pharmaceutica, NV, priority 2007, dated 2016).

For orientation: IC50 means the concentration needed to halve the response being measured.

The target in this experiment is canine TRPM8 (Canis lupus familiaris, UniProt Q1A7N1). As to the kind of experiment: In Vitro Canine TRPM8 Functional Assay (Ca2+ fluorescence, icilin activation). It counts as cell-based. The conditions noted are these: for inhibition at 0.2 µM: read-out: % Inh @ 0.2; for IC50: read-out: IC50; for inhibition at 0.5 µM: compound at 0.5 μM, read-out: % Inh @ 0.5. An outline of the steps: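 Eight-point dose-response curves in quadruplicate gave EC50 or IC50 values from a Ca2+-sensitive dye assay in HEK293 cells stably carrying canine TRPM8. Icilin, dosed near its 80% maximal level, followed a 5 min compound exposure.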

Where [1] appears, read: compound at 0.2 μM, canine TRPM8, icilin activation.
Setting [2] is: HEK293 cells stably expressing canine TRPM8, icilin activation, eight-point dose-response.
Setting [3] is: canine TRPM8, icilin activation.

Molecules are shown by their SMILES. Where two headings read alike, the source gives them in different places.

Sequence of canine TRPM8 (Q1A7N1 1-1104): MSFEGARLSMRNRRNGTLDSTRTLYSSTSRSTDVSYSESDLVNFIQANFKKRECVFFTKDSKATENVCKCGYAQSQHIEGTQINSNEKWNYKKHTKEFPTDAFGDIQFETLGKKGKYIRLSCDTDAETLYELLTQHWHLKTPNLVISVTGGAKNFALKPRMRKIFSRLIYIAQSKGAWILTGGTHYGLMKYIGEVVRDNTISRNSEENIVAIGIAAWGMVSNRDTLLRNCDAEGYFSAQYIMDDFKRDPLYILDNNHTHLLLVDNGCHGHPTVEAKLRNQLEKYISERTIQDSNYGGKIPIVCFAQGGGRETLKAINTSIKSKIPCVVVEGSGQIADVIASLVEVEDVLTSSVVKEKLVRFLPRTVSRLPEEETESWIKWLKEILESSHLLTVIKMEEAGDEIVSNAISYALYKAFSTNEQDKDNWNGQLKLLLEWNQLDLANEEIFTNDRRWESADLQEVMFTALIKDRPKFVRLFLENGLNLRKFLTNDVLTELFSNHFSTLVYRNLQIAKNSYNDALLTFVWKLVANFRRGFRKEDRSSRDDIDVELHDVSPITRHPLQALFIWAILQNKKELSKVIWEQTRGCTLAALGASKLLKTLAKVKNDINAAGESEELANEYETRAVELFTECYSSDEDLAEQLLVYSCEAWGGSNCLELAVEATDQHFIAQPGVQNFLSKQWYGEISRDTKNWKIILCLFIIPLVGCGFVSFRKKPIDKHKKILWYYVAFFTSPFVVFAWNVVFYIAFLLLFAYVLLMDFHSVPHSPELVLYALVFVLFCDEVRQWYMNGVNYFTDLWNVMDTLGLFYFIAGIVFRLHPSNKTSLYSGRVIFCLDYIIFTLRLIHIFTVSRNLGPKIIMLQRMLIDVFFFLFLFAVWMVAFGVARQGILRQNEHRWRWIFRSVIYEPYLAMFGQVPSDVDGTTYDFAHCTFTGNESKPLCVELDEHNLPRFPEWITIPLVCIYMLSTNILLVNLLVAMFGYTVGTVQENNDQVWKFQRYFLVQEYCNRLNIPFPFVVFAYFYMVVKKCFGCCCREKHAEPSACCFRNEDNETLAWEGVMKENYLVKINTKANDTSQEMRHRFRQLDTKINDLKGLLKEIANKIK

For `Cc1c(N(Cc2ccc(F)c(C(F)(F)F)c2)S(=O)(=O)c2cccc3c2CNCC3)sc2ccccc12` [Compound 79, N-(4-Fluoro-3-trifluoromethyl-benzyl)-N-(3-methyl-benzo[b]thiophen-2-yl)-1,2,3,4-tetrahydro-isoquinoline-8-sulfonamide], under setting [1], the inhibition at 0.2 µM was found to be 69%. With `Cc1c(N(Cc2ccc(F)c(F)c2)S(=O)(=O)c2cccc(F)c2)sc2ccccc12` [Compound 127, N-(3,4-Difluoro-benzyl)-N-(3-methyl-benzo[b]thiophen-2-yl)-3-fluoro-benzenesulfonamide], the IC50 under setting [2] was determined as 8 nM. Further, the inhibition at 0.5 µM under setting [3] worked out at 98%. Take `O=C(O)c1ccc(S(=O)(=O)N(CC(F)F)c2sc3ccccc3c2Br)cc1` [Compound 276, N-(3-Bromo-benzo[b]thiophen-2-yl)-N-(2,2-difluoro-ethyl)-4-carboxy-benzenesulfonamide]: the IC50 under setting [2] turned out to be 71 nM. Also, under setting [1], the inhibition at 0.2 µM was 76%.

Take `Cc1c(N(Cc2ccc(F)cc2)S(=O)(=O)c2ccc(F)c(F)c2)sc2ccccc12` [Compound 826, N-(4-Fluoro-benzyl)-N-(3-methyl-benzo[b]thiophen-2-yl)-3,4-difluoro-benzenesulfonamide]: the inhibition at 0.2 µM (0.2 μM compound, HEK293 cells stably expressing canine TRPM8, icilin activation) amounted to 97%. The IC50 (HEK293 cells stably expressing canine TRPM8, icilin activation, average of two or more determinations) stood at 24 nM. For `O=[N+]([O-])c1ccccc1CN(c1cc2ccccc2s1)S(=O)(=O)c1ccccc1` [Compound 55, N-(Benzo[b]thiophen-2-yl)-N-(2-nitro-benzyl)-benzenesulfonamide], under setting [2], the IC50 was found to be 65.5 nM. Besides, the inhibition at 0.5 µM under setting [3] stood at 99%. With `Cc1c(N(CCOC(C)(C)C)S(=O)(=O)c2ccc(C(=O)O)cc2)sc2ccccc12` [Compound 401, N-(3-Methyl-benzo[b]thiophen-2-yl)-N-(2-tert-butoxy-ethyl)-4-carboxy-benzenesulfonamide], the IC50 under setting [2] stood at 5 nM. Also, the inhibition at 0.2 µM under setting [1] was found to be 91%. On to `COC(=O)CCCS(=O)(=O)N(Cc1ccc(F)c(C(F)(F)F)c1)c1sc2ccccc2c1C` [Compound 757, N-(4-Fluoro-3-trifluoromethyl-benzyl)-N-(3-methyl-benzo[b]thiophen-2-yl)-3-carbomethoxy-propanesulfonamide], for which the IC50 under setting [2] was found to be 10.8 nM. Further, the inhibition at 0.2 µM under setting [1] amounted to 101%.

As to `CCCCN(c1sc2ccccc2c1C)S(=O)(=O)c1ccc(C2=NOS(=O)N2)cc1` (stereo not drawn) [Compound 540, N-(3-Methyl-benzo[b]thiophen-2-yl)-N-(butyl)-4-(3H-[1,2,3,5]oxathiadiazole-2-oxide)-benzenesulfonamide], the IC50 under setting [2] was 12.2 nM. Also, the “% Inh @ 0.2 (μM)” value under setting [1] is reported as 104.6%. As for `Cc1c(N(CCC(F)(F)F)S(=O)(=O)c2ccc(-c3noc(=O)[nH]3)cc2)sc2ccccc12` [Compound 599, N-(3-Methyl-benzo[b]thiophen-2-yl)-N-(3,3,3-trifluoro-propyl)-4-(5-oxo-4,5-dihydro-[1,2,4]oxadiazol-3-yl)-benzenesulfonamide], the IC50 under setting [2] was determined as 16.1 nM. Moreover, under setting [1], the inhibition at 0.2 µM is 101%.

For the compound `CCS(=O)(=O)N(CCN1CCOCC1)c1sc2ccccc2c1C(C)=O` [Compound 124, N-(3-Acetyl-benzo[b]thiophen-2-yl)-N-(2-morpholin-4-yl-ethyl)-ethanesulfonamide], under setting [1], the inhibition at 0.2 µM was determined as 14%. Consider `O=C(O)c1ccc(S(=O)(=O)N(CCC2CC2)c2sc3ccccc3c2Br)c(F)c1` [Compound 709, N-(3-Bromo-benzo[b]thiophen-2-yl)-N-(2-cyclopropyl-ethyl)-2-fluoro-4-carboxy-benzenesulfonamide], for which the IC50 under setting [2] was 6 nM. Moreover, under setting [1], the inhibition at 0.2 µM stood at 102%.

With `CCCCN(C1=C(OC)c2ccccc2S1(=O)=O)S(=O)(=O)c1ccc(C(=O)OC)cc1` [Compound 436, N-(Butyl)-N-(3-methoxy-1,1-dioxo-1H-benzo[b]thiophen-2-yl)-4-carbomethoxy-benzenesulfonamide], the IC50 under setting [2] was found to be 4 nM. Also, under setting [1], the inhibition at 0.2 µM is 89%. Turning to `O=Cc1c(N(Cc2ccc(F)c(C(F)(F)F)c2)S(=O)(=O)c2ccc(C(=O)O)cc2)sc2ccccc12` [Compound 299, N-(3-Formyl-benzo[b]thiophen-2-yl)-N-(4-fluoro-3-trifluoromethyl-benzyl)-4-carboxy-benzenesulfonamide], the IC50 under setting [2] amounted to 3 nM. Under setting [1], the inhibition at 0.2 µM is 90%. Regarding `Nc1ccc(S(=O)(=O)N(CCCCC(F)(F)F)c2sc3ccccc3c2Cl)cc1` [Compound 666, 4-Amino-N-(3-chloro-benzo[b]thiophen-2-yl)-N-(5,5,5-trifluoro-pentyl)-benzenesulfonamide], the IC50 under setting [2] amounted to 8.1 nM. For the same compound, the inhibition at 0.2 µM under setting [1] came to 103%.

Consider `COC(=O)c1ccc(S(=O)(=O)N(Cc2ccc(F)c(C(F)(F)F)c2)c2sc3ccccc3c2C)cc1` [Compound 138, N-(3-Methyl-benzo[b]thiophen-2-yl)-N-(4-fluoro-3-trifluoromethyl-benzyl)-4-carbomethoxy-benzenesulfonamide], for which, under setting [2], the IC50 was determined as 13 nM. Under setting [1], the inhibition at 0.2 µM worked out at 83%.

In the case of `Cc1c(N(Cc2ccc(OC(F)(F)F)cc2)S(=O)(=O)c2ccc3ncccc3c2)sc2ccccc12` [Compound 31, N-(3-Methyl-benzo[b]thiophen-2-yl)-N-(4-trifluoromethoxy-benzyl)-quinoline-6-sulfonamide], under setting [2], the IC50 was 22 nM. Also, the inhibition at 0.5 µM under setting [3] was found to be 100%.

`O=S(=O)(c1cccnc1Cl)N(Cc1ccc(F)c(C(F)(F)F)c1)c1sc2ccccc2c1Cl` [Compound 321, N-(3-Chloro-benzo[b]thiophen-2-yl)-N-(4-fluoro-3-trifluoromethyl-benzyl)-2-chloro-pyridin-3-ylsulfonamide]: under setting [2], the IC50 was 70 nM. Further, the inhibition at 0.2 µM under setting [1] is 81%. As to `Cc1c(N(CCC2CC2)S(=O)(=O)c2cccc(C#N)c2)sc2ccccc12` [Compound 549, N-(2-Cyclopropyl-ethyl)-N-(3-methyl-benzo[b]thiophen-2-yl)-3-cyano-benzenesulfonamide], the IC50 under setting [2] stood at 15.9 nM. Besides, the inhibition at 0.2 µM under setting [1] worked out at 104%. For `O=S1NC(c2ccc(S(=O)(=O)N(CCCCC(F)(F)F)c3sc4ccccc4c3Cl)cc2)=NO1` (stereo not drawn) [Compound 582, N-(3-Chloro-benzo[b]thiophen-2-yl)-N-(5,5,5-trifluoro-pentyl)-4-(3H-[1,2,3,5]oxathiadiazole-2-oxide)-benzenesulfonamide], the IC50 under setting [2] worked out at 50.3 nM. Moreover, the “% Inh @ 0.2 (μM)” value under setting [1] is recorded as 96%. Turning to `Cc1c(N(CCC2CC2)S(=O)(=O)C(F)(F)F)sc2ccccc12` [Compound 665, N-(2-Cyclopropyl-ethyl)-C,C,C-trifluoro-N-(3-methyl-benzo[b]thiophen-2-yl)-methanesulfonamide], the inhibition at 0.2 µM under setting [1] stood at 27.9%. As to `O=C1CCC(=O)N1CCN(c1sc2ccccc2c1Br)S(=O)(=O)c1ccccc1` [Compound 257, N-(3-Bromo-benzo[b]thiophen-2-yl)-N-[2-(2,5-dioxo-pyrrolidin-1-yl)-ethyl]-benzenesulfonamide], the inhibition at 0.2 µM under setting [1] turned out to be 62%. Take `Cc1c(N(Cc2ccc(F)c(F)c2)S(=O)(=O)c2cccnc2)sc2ccccc12` [Compound 12, N-(3,4-Difluoro-benzyl)-N-(3-methyl-benzo[b]thiophen-2-yl)-pyridine-3-sulfonamide]: under setting [2], the IC50 was found to be 6 nM. Besides, the inhibition at 0.5 µM under setting [3] came out at 97%. As to `O=S(=O)(c1cccnc1)N(CCCC(F)(F)F)c1sc2ccccc2c1Cl` [Compound 408, N-(3-Chloro-benzo[b]thiophen-2-yl)-N-(4,4,4-trifluoro-butyl)-3-pyridin-3-yl-sulfonamide], the IC50 under setting [2] worked out at 122 nM. For the same compound, the “% Inh @ 0.2 (μM)” value under setting [1] is reported as 78%. For the compound `COc1ccc(S(=O)(=O)N(Cc2ccc(F)c(C(F)(F)F)c2)c2sc3ccccc3c2C)cc1F` [Compound 64, N-(4-Fluoro-3-trifluoromethyl-benzyl)-N-(3-methyl-benzo[b]thiophen-2-yl)-3-fluoro-4-methoxybenzenesulfonamide], the 50% inhibitory concentration (IC50) under setting [2] was 19 nM. Besides, under setting [1], the inhibition at 0.2 µM was 96%. As for `Cc1c(N(Cc2ccc(F)c(C(F)(F)F)c2)S(=O)(=O)CC(F)(F)F)sc2ccccc12` [Compound 669, N-(4-Fluoro-3-trifluoromethyl-benzyl)-N-(3-methyl-benzo[b]thiophen-2-yl)-2,2,2-trifluoro-ethanesulfonamide], the IC50 under setting [2] was 51.2 nM. Further, the inhibition at 0.2 µM under setting [1] stood at 96.4%. As to `Cc1c(N(CCC(F)(F)F)S(=O)(=O)c2cccc(C#N)c2)sc2ccccc12` [Compound 550, N-(3-Methyl-benzo[b]thiophen-2-yl)-N-(3,3,3-trifluoro-propyl)-3-cyano-benzenesulfonamide], the IC50 under setting [2] was 18.8 nM. Under setting [1], the inhibition at 0.2 µM came to 104%.

As to `Cc1c(N(CCC(F)(F)F)S(=O)(=O)c2ccc(-c3nnn[nH]3)cc2)sc2ccccc12` [Compound 572, N-(3-Methyl-benzo[b]thiophen-2-yl)-N-(3,3,3-trifluoro-propyl)-4-(1H-tetrazol-5-yl)-benzenesulfonamide], under setting [2], the IC50 was 16.6 nM. The inhibition at 0.2 µM under setting [1] came to 101%.

For `COC(=O)c1ccc(S(=O)(=O)N(CCC2CC2)c2sc3ccccc3c2C)cc1` [Compound 628, N-(2-Cyclopropyl-ethyl)-N-(3-methyl-benzo[b]thiophen-2-yl)-4-carbomethoxy-benzenesulfonamide], the IC50 under setting [2] was 23.3 nM. Moreover, under setting [1], the inhibition at 0.2 µM was 103%. Regarding `O=S(=O)(c1ccccc1)N(Cc1ccc(F)c(F)c1)c1cc2cccnc2s1` [Compound 147, N-(3,4-Difluoro-benzyl)-N-thieno[2,3-b]pyridin-2-yl-benzenesulfonamide], the IC50 under setting [2] was determined as 78.2 nM. For the same compound, the inhibition at 0.5 µM under setting [3] is 96%.
